Calls of active or inactive are those of the source. The calls are words filed in the database; no cut-off is given here.
What was measured:
Mus musculus [1] = assay: Anticonvulsant activity in Swiss albino mouse assessed as inhibition of maximal electroshock-induced seizures at 300 mg/kg, ip administered 30 mins before electroshock measured after 0.5 hrs post electroshock; assay type: functional, organism-based; parameters: dose 300 mg/kg
Mus musculus [2] = assay: Anticonvulsant activity in ip dosed Swiss albino mouse assessed as inhibition of subcutaneous pentylenetetrazole-induced seizures administered 30 mins before PTZ challenge measured after 0.5 hrs post PTZ challenge; assay type: functional
Mus musculus [3] = assay: Neurotoxicity in ip dosed Swiss albino mouse assessed as inability of animal to maintain equilibrium on the rod for at least 1 min after 0.5 hrs by rotarod test; assay type: toxicity, organism-based; settings: in vivo
Mus musculus [4] = assay: Anticonvulsant activity in Swiss albino mouse assessed as inhibition of subcutaneous pentylenetetrazole-induced seizures at 300 mg/kg, ip administered 30 mins before PTZ challenge measured after 4 hrs post PTZ challenge; assay type: functional, organism-based; parameters: dose 300 mg/kg
Mus musculus [5] = assay: Neurotoxicity in Swiss albino mouse assessed as inability of animal to maintain equilibrium on the rod for at least 1 min at 300 mg/kg, ip after 4 hrs by rotarod test; assay type: toxicity, organism-based; parameters: dose 300 mg/kg, route intraperitoneal; settings: in vivo
Rattus norvegicus = assay: Anticonvulsant activity in Wistar rat assessed as protection against hyperthermia-induced seizures at 100 mg/kg, ip relative to control; assay type: functional; settings: route intraperitoneal
Mus musculus [6] = assay: Anticonvulsant activity in ip dosed Swiss albino mouse assessed as inhibition of subcutaneous strychnine-induced seizures administered 30 mins before STY challenge measured after 4 hrs post STY challenge; assay type: functional
Mus musculus [7] = assay: Anticonvulsant activity in ip dosed Swiss albino mouse assessed as inhibition of subcutaneous strychnine-induced seizures administered 30 mins before STY challenge measured after 0.5 hrs post STY challenge; assay type: functional
Mus musculus [8] = assay: Anticonvulsant activity in Swiss albino mouse assessed as inhibition of subcutaneous pentylenetetrazole-induced seizures at 300 mg/kg, ip administered 30 mins before PTZ challenge measured after 0.5 hrs post PTZ challenge; assay type: functional, organism-based; parameters: dose 300 mg/kg
Mus musculus [9] = assay: Neurotoxicity in Swiss albino mouse assessed as inability of animal to maintain equilibrium on the rod for at least 1 min at 300 mg/kg, ip after 0.5 hrs by rotarod test; assay type: toxicity, organism-based; parameters: dose 300 mg/kg, route intraperitoneal; settings: in vivo
Mus musculus [10] = assay: Neurotoxicity in ip dosed Swiss albino mouse assessed as inability of animal to maintain equilibrium on the rod for at least 1 min after 4 hrs by rotarod test; assay type: toxicity, organism-based; settings: in vivo
Mus musculus [11] = assay: Anticonvulsant activity in ip dosed Swiss albino mouse assessed as inhibition of maximal electroshock-induced seizures administered 30 mins before electroshock measured after 0.5 hrs post electroshock; assay type: functional
Mus musculus [12] = assay: Anticonvulsant activity in Swiss albino mouse assessed as inhibition of subcutaneous strychnine-induced seizures at 300 mg/kg, ip administered 30 mins before STY challenge measured after 4 hrs post STY challenge; assay type: functional, organism-based; parameters: dose 300 mg/kg
Mus musculus [13] = assay: Anticonvulsant activity in Swiss albino mouse assessed as inhibition of subcutaneous picrotoxin-induced seizures at 300 mg/kg, ip administered 30 mins before PIC challenge measured after 4 hrs post PIC challenge; assay type: functional, organism-based; parameters: dose 300 mg/kg
Mus musculus [14] = assay: Anticonvulsant activity in Swiss albino mouse assessed as inhibition of subcutaneous picrotoxin-induced seizures at 300 mg/kg, ip administered 30 mins before PIC challenge measured after 0.5 hrs post PIC challenge; assay type: functional, organism-based; parameters: dose 300 mg/kg
Mus musculus [15] = assay: Anticonvulsant activity in Swiss albino mouse assessed as inhibition of subcutaneous strychnine-induced seizures at 300 mg/kg, ip administered 30 mins before STY challenge measured after 0.5 hrs post STY challenge; assay type: functional, organism-based; parameters: dose 300 mg/kg
Mus musculus [16] = assay: Anticonvulsant activity in ip dosed Swiss albino mouse assessed as inhibition of subcutaneous picrotoxin-induced seizures administered 30 mins before PIC challenge measured after 4 hrs post PIC challenge; assay type: functional
Mus musculus [17] = assay: Anticonvulsant activity in ip dosed Swiss albino mouse assessed as inhibition of subcutaneous picrotoxin-induced seizures administered 30 mins before PIC challenge measured after 0.5 hrs post PIC challenge; assay type: functional
Mus musculus [18] = assay: Anticonvulsant activity in ip dosed Swiss albino mouse assessed as inhibition of subcutaneous pentylenetetrazole-induced seizures administered 30 mins before PTZ challenge measured after 4 hrs post PTZ challenge; assay type: functional

| SMILES | Activity (Mus musculus [1]) | Activity (Mus musculus [2]) [mg/kg] | Activity (Mus musculus [3]) [mg/kg] | Activity (Mus musculus [4]) | Activity (Mus musculus [5]) | Activity (Rattus norvegicus) [%] | Activity (Mus musculus [6]) [mg/kg] | Activity (Mus musculus [7]) [mg/kg] | Activity (Mus musculus [8]) | Activity (Mus musculus [9]) | Activity (Mus musculus [10]) [mg/kg] | Activity (Mus musculus [11]) [mg/kg] | Activity (Mus musculus [12]) | Activity (Mus musculus [13]) | Activity (Mus musculus [14]) | Activity (Mus musculus [15]) | Activity (Mus musculus [16]) [mg/kg] | Activity (Mus musculus [17]) [mg/kg] | Activity (Mus musculus [18]) [mg/kg] |
| --- | --- | --- | --- | --- | --- | --- | --- | --- | --- | --- | --- | --- | --- | --- | --- | --- | --- | --- | --- |
| O=C(O)CCCNC(=S)N/N=C/c1ccc(Cl)cc1 | inactive | 100 | 100 | inactive | Non-toxic | 49 | 300 | 300 |  |  |  |  |  |  |  |  |  |  |  |
| CN(C)c1ccc(/C=N/NC(=S)NCCCC(=O)O)cc1 | inactive |  |  | inactive | Non-toxic | 88 | 300 | 300 | inactive | Non-toxic |  |  |  |  |  |  |  |  |  |
| NNC(=S)NCCCC(=O)O |  |  | 300 | inactive |  | 27 |  |  | inactive |  | 300 | 300 | inactive | inactive | inactive | inactive |  |  |  |
| O=C(O)CCCNC(=S)N/N=C/c1ccccc1O | inactive | 100 |  | inactive | Non-toxic | 92 |  | 100 |  | Non-toxic |  |  | inactive |  |  |  |  |  |  |
| O=C1NC(=O)C(c2ccccc2)(c2ccccc2)N1 [PHENYTOIN] |  |  | 100 | inactive |  |  |  |  | inactive |  | 100 | 30 | inactive | inactive | inactive | inactive |  |  |  |
| CCC1(C)CC(=O)NC1=O (configuration not stated) [ETHOSUXIMIDE] | inactive | 300 |  | inactive | Non-toxic |  |  |  |  | Non-toxic |  |  | inactive | inactive | inactive | inactive |  |  |  |
| O=C(O)CCCNC(=S)N/N=C/c1cccc([N+](=O)[O-])c1 | inactive |  |  |  | Non-toxic | 51 |  | 300 | inactive | Non-toxic |  |  | inactive |  |  |  | 100 | 100 | 300 |
| O=C(O)CCCNC(=S)N/N=C(\c1ccccc1)c1ccc(Br)cc1 | inactive |  | 300 | inactive | Non-toxic | 19 |  | 100 | inactive |  |  |  | inactive |  |  |  |  |  |  |
| Nc1nnc(-c2cccc(Cl)c2Cl)c(N)n1 [LAMOTRIGINE] |  | 30 | 100 | inactive |  | 51 |  |  |  |  | 100 | 30 | inactive | inactive | inactive | inactive |  |  |  |
| C/C(=N\NC(=S)NCCCC(=O)O)c1cccc(N)c1 | inactive |  |  | inactive | Non-toxic | 27 |  |  | inactive | Non-toxic |  |  | inactive |  |  | inactive | 300 | 300 |  |
| C/C(=N\NC(=S)NCCCC(=O)O)c1ccc(C)cc1 | inactive |  |  | inactive | Non-toxic | 80 |  |  | inactive | Non-toxic |  |  | inactive | inactive | inactive | inactive |  |  |  |
| O=C(O)CCCNC(=S)N/N=C1\C(=O)Nc2ccccc21 | inactive | 30 |  | inactive | Non-toxic | 92 |  |  |  | Non-toxic |  |  | inactive |  |  | inactive | 300 | 300 |  |
| O=C(O)CCCNC(=S)NN=C(c1ccccc1)c1ccccc1 |  |  |  | inactive | Non-toxic | 83 |  |  | inactive | Non-toxic |  | 300 | inactive |  |  | inactive |  |  |  |
| O=C(O)CCCNC(=S)N/N=C/c1ccc([N+](=O)[O-])cc1 | inactive |  |  | inactive | Non-toxic | 85 |  |  | inactive | Non-toxic |  |  | inactive |  |  | inactive | 300 | 300 |  |
| O=C(O)CCCNC(=S)NN=C1CCCCC1 | inactive |  |  | inactive | Non-toxic | 78 |  |  | inactive | Non-toxic |  |  | inactive |  |  | inactive | 300 | 300 |  |
| C/C(=N\NC(=S)NCCCC(=O)O)c1ccccc1 | inactive | 300 |  | inactive | Non-toxic | 90 |  |  |  | Non-toxic |  |  | inactive |  |  | inactive | 100 | 100 |  |
| C/C(=N\NC(=S)NCCCC(=O)O)c1ccc([N+](=O)[O-])cc1 | inactive |  | 100 | inactive |  | 46 |  |  | inactive |  | 100 |  | inactive | inactive | inactive | inactive |  |  |  |
| O=C(O)CCCNC(=S)NN=C1CCCC1 | inactive | 100 |  | inactive | Non-toxic | 71 |  |  |  | Non-toxic |  |  | inactive | inactive | inactive | inactive |  |  |  |
| O=C(O)CCCNC(=S)NN=C(Cc1ccccc1)Cc1ccccc1 | inactive |  |  | inactive |  | 73 |  |  | inactive | Non-toxic | 300 |  | inactive | inactive |  | inactive |  |  |  |

Reference: ChEMBL document CHEMBL1154479, “Newer GABA derivatives for the treatment of epilepsy including febrile seizures: a bioisosteric approach” (Eur J Med Chem, 2008)
